Values quoted from earlier work as cited in patent US20250000913A1, “SALMONELLA ENGINEERED FOR NONTOXIC COLONIZATION OF TUMORS” (priority 2021, published 2025).

Assays:
[1] = in vivo
[2] = mouse, in vivo

SMILES | half-life of circulating CKD-516 [1] | day on which weight gain resumed [2] [days] | weight loss [2]
COc1cc(C(=O)c2ccc(-c3csc(NC(=O)[C@@H](N)C(C)C)n3)cc2-n2cncn2)cc(OC)c1OC.Cl [CKD-516] | about 5 hours | – | –
COc1cccc2c1C(=O)c1c(O)c3c(c(O)c1C2=O)C[C@@](O)(C(=O)CO)C[C@@H]3O[C@H]1C[C@H](N)[C@H](O)[C@H](C)O1 [doxorubicin] | – | 21 | over 25%
